Experimental findings from patent US9833497B2, “Human originated EGF domain proteins and use of the same” (CHENGDU SOURCEBIO LIMITED-LIABILITY COMPANY, priority 2013, dated 2017) are described below.

Common to all, as to format: cell-based
One test concerns E. coli DH5α. The experiment in a line: Antibacterial activity: MIC and growth curve against E. coli DH5α in 96-well plate. To be noted: minimal inhibitory concentration against E. coli DH5α; 96-well plate, 5×10^5 CFU/mL, 37° C., judged after 8 h. The procedure, abridged:
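Log-phase DH5α (OD600 about 0.5, 37° C, 185 rpm in LB) was pelleted, resuspended in fresh LB and seeded at 5×10^5 CFU/mL with recombinant protein at 50, 25 and 12.5 μg/mL (two-fold series), in triplicate. Plates were shaken at 175 rpm, 37° C, and OD600 was read every 30 min. MIC was the lowest concentration with no growth.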

For another test, the system named is E. coli BL21. As to the kind of experiment: MIC against Gram-negative bacteria: E. coli BL21. To be noted: for MIC against E. coli BL21 / MIC (μg/mL) E. coli BL21: 5×10^5 CFU/mL. The procedure, abridged: (§1)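 Inocula prepared by growing LB cultures at 37° C to 0.5 McFarland, centrifuging at 4000×g, and resuspending in fresh medium. Final density 5×10^5 CFU/mL per well with two-fold dilutions of purified EGF domain protein; shaking incubation at 37° C.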

Another test has as its system Pseudomonas aeruginosa. The experiment in a line: MIC against Gram-negative bacteria: Pseudomonas aeruginosa. As to conditions: for MIC against P. aeruginosa / MIC (μg/mL) P. aeruginosa: 5×10^5 CFU/mL. The procedure, abridged: as §1
Another test relates to Klebsiella pneumonia. As to the kind of experiment: MIC against Gram-negative bacteria: Klebsiella pneumonia. To be noted: for MIC against K. pneumonia / MIC (μg/mL) K. pneumonia: 5×10^5 CFU/mL. The gist of the method: as §1
The next test relates to Enterobacter cloacae. The experiment in a line: MIC against Gram-negative bacteria: Enterobacter cloacae. As to conditions: for MIC against E. cloacae / MIC (μg/mL) E. cloacae: 5×10^5 CFU/mL. The procedure, abridged:
as §1

For a further test, the system named is Aeromonas hydrophila. As to the kind of experiment: MIC against Gram-negative bacteria: Aeromonas hydrophila. To be noted: for MIC against A. hydrophila / MIC (μg/mL) A. hydrophila: 5×10^5 CFU/mL. The gist of the method: as §1
Another test concerns Citrobacter diversus. As to the kind of experiment: MIC against Gram-negative bacteria: Citrobacter diversus. As to conditions: for MIC against C. diversus / MIC (μg/mL) C. diversus: 5×10^5 CFU/mL. The procedure, abridged: as §1
The test system of a further test is Moraxella catarrhalis. The experiment in a line: MIC against Gram-negative bacteria: Moraxella catarrhalis. To be noted: for MIC against M. catarrhalis / MIC (μg/mL) M. catarrhalis: 5×10^5 CFU/mL. The gist of the method:
as §1

The next test has as its system Proteus mirabilis. The experiment in a line: MIC against Gram-negative bacteria: Proteus mirabilis. As to conditions: for MIC against P. mirabilis / MIC (μg/mL) P. mirabilis: 5×10^5 CFU/mL. The gist of the method: as §1
The test system of a further test is Proteus vulgaris. The experiment in a line: MIC against Gram-negative bacteria: Proteus vulgaris. As to conditions: for MIC against P. vulgaris / MIC (μg/mL) P. vulgaris: 5×10^5 CFU/mL. The procedure, abridged: as §1
The next test deals with Serratia marcescens. As to the kind of experiment: MIC against Gram-negative bacteria: Serratia marcescens. As to conditions: for MIC against S. marcescens / MIC (μg/mL) S. marcescens: 5×10^5 CFU/mL. The procedure, abridged:
as §1

Setting [1] is: E. coli BL21, 10 h cultivation at 37° C.
[2] abbreviates: P. aeruginosa, 10 h cultivation at 37° C.
The mark [3] stands for this setting: K. pneumonia, 10 h cultivation at 37° C.
Setting [4] is: E. cloacae, 10 h cultivation at 37° C.
Where [5] appears, read: A. hydrophila, 10 h cultivation at 37° C.
The mark [6] stands for this setting: C. diversus, 10 h cultivation at 37° C.
The mark [7] stands for this setting: M. catarrhalis, 10 h cultivation at 37° C.
Setting [8] is: P. mirabilis, 10 h cultivation at 37° C.
Where [9] appears, read: P. vulgaris, 10 h cultivation at 37° C.
The mark [10] stands for this setting: S. marcescens, 10 h cultivation at 37° C.

“PRT544 (CDCGARLCDELTGQCICPPRTIPPDCLLCQPQTFGCHPLVGCEE; listed as Homo sapiens)”: the MIC with E. coli DH5α amounted to 12.5 µg/mL. Besides, the “MIC against E. coli BL21” value in the test on E. coli BL21 (96-well plate, 37° C., 10 h) came out at 25 µg/mL. The “MIC against P. aeruginosa” value against Pseudomonas aeruginosa (96-well plate, 37° C., 10 h) was 12.5 µg/mL. Moreover, in the test with Klebsiella pneumonia (96-well plate, 37° C., 10 h), the “MIC against K. pneumonia” value is 25 µg/mL. Also, the “MIC against E. cloacae” value against Enterobacter cloacae (96-well plate, 37° C., 10 h) was determined as 12.5 µg/mL. Also, the “MIC against A. hydrophila” value against Aeromonas hydrophila (96-well plate, 37° C., 10 h) amounted to 12.5 µg/mL. In addition, the “MIC against C. diversus” value against Citrobacter diversus (96-well plate, 37° C., 10 h) is 12.5 µg/mL. Besides, the “MIC against M. catarrhalis” value against Moraxella catarrhalis (96-well plate, 37° C., 10 h) came out at 12.5 µg/mL. Further, the “MIC against P. mirabilis” value against Proteus mirabilis (96-well plate, 37° C., 10 h) was 12.5 µg/mL. Also, the “MIC against P. vulgaris” value against Proteus vulgaris (96-well plate, 37° C., 10 h) was 12.5 µg/mL. The “MIC against S. marcescens” value in the test with Serratia marcescens (96-well plate, 37° C., 10 h) worked out at 12.5 µg/mL.

“PRT491 (LDICSKNPCHNGGLCEEISQEVRGDVFPSYTCTCLKGYAGNHCE; listed as Homo sapiens)” had an MIC with E. coli DH5α of 12.5 µg/mL. Besides, the “MIC against E. coli BL21” value in the test on E. coli BL21 (96-well plate, 37° C., 10 h) was 25 µg/mL. For the same substance, in the test on Pseudomonas aeruginosa (96-well plate, 37° C., 10 h), the “MIC against P. aeruginosa” value came out at 50 µg/mL. Also, the “MIC against K. pneumonia” value against Klebsiella pneumonia (96-well plate, 37° C., 10 h) stood at 12.5 µg/mL. In addition, the “MIC against E. cloacae” value in the test with Enterobacter cloacae (96-well plate, 37° C., 10 h) stood at 50 µg/mL. Besides, in the test with Aeromonas hydrophila (96-well plate, 37° C., 10 h), the “MIC against A. hydrophila” value turned out to be 100 µg/mL. The “MIC against C. diversus” value against Citrobacter diversus (96-well plate, 37° C., 10 h) turned out to be 50 µg/mL. In addition, the “MIC against M. catarrhalis” value against Moraxella catarrhalis (96-well plate, 37° C., 10 h) was found to be 12.5 µg/mL. Also, the “MIC against P. mirabilis” value in the test on Proteus mirabilis (96-well plate, 37° C., 10 h) was 50 µg/mL. Besides, the “MIC against P. vulgaris” value against Proteus vulgaris (96-well plate, 37° C., 10 h) was determined as 25 µg/mL. Moreover, the “MIC against S. marcescens” value in the test on Serratia marcescens (96-well plate, 37° C., 10 h) was found to be 12.5 µg/mL.

The substance “PRT161 (KVDPCASSPCQNNGTCYVDGVHFTCNCSPGFTGPTCA; listed as Homo sapiens)” registered an MIC against E. coli DH5α of 12.5 µg/mL. Also, the “MIC (μg/mL) E. coli BL21” value against E. coli BL21 (setting [1]) was 12.5 µg/mL. Moreover, the “MIC (μg/mL) P. aeruginosa” value against Pseudomonas aeruginosa (setting [2]) is 25 µg/mL. Also, in the test on Klebsiella pneumonia (setting [3]), the “MIC (μg/mL) K. pneumonia” value was 12.5 µg/mL. The “MIC (μg/mL) E. cloacae” value against Enterobacter cloacae (setting [4]) is 25 µg/mL. The “MIC (μg/mL) A. hydrophila” value against Aeromonas hydrophila (setting [5]) was 50 µg/mL. The “MIC (μg/mL) C. diversus” value in the test with Citrobacter diversus (setting [6]) was determined as 25 µg/mL. For the same substance, in the test on Moraxella catarrhalis (setting [7]), the “MIC (μg/mL) M. catarrhalis” value was 12.5 µg/mL. The “MIC (μg/mL) P. mirabilis” value with Proteus mirabilis (setting [8]) stood at 25 µg/mL. The “MIC (μg/mL) P. vulgaris” value against Proteus vulgaris (setting [9]) was found to be 50 µg/mL. The “MIC (μg/mL) S. marcescens” value with Serratia marcescens (setting [10]) came to 25 µg/mL.

Turning to “PRT954 (NIDDCPNHRCQNGGVCVDGVNTYNCRCPPQWTGQFCT; listed as Homo sapiens)”, the MIC stood at 50 µg/mL against E. coli DH5α; 25 µg/mL against E. coli BL21 (setting [1]); 12.5 µg/mL in the test on Pseudomonas aeruginosa (setting [2]); 25 µg/mL against Klebsiella pneumonia (setting [3]); 50 µg/mL with Enterobacter cloacae (setting [4]); 12.5 µg/mL in the test with Aeromonas hydrophila (setting [5]). In addition, the MIC against Citrobacter diversus (setting [6]) worked out at 25 µg/mL; in the test with Moraxella catarrhalis (setting [7]), 50 µg/mL; against Proteus mirabilis (setting [8]) it was 25 µg/mL; against Proteus vulgaris (setting [9]), 12.5 µg/mL; in the test on Serratia marcescens (setting [10]) it was 25 µg/mL.

“PRT1393 (EERSCHSHCTEHGQCKDGKCECSPGWEGDHCT; listed as Homo sapiens)” had an MIC against E. coli DH5α of 25 µg/mL. Further, the “MIC against E. coli BL21” value against E. coli BL21 (setting [1]) was determined as 12.5 µg/mL. For the same substance, the “MIC against P. aeruginosa” value against Pseudomonas aeruginosa (Pseudomonas aeruginosa, 10 h cultivation at 37° C.) stood at 25 µg/mL. Moreover, the “MIC against K. pneumonia” value in the test on Klebsiella pneumonia (Klebsiella pneumonia, 10 h cultivation at 37° C.) came out at 50 µg/mL. Also, the “MIC against E. cloacae” value with Enterobacter cloacae (Enterobacter cloacae, 10 h cultivation at 37° C.) is 25 µg/mL. In the test with Aeromonas hydrophila (Aeromonas hydrophila, 10 h cultivation at 37° C.), the “MIC against A. hydrophila” value was determined as 12.5 µg/mL. In addition, the “MIC against C. diversus” value in the test on Citrobacter diversus (Citrobacter diversus, 10 h cultivation at 37° C.) was 25 µg/mL. Also, the “MIC against M. catarrhalis” value in the test on Moraxella catarrhalis (Moraxella catarrhalis, 10 h cultivation at 37° C.) is 50 µg/mL. The “MIC against P. mirabilis” value against Proteus mirabilis (Proteus mirabilis, 10 h cultivation at 37° C.) came to 12.5 µg/mL. In the test with Proteus vulgaris (Proteus vulgaris, 10 h cultivation at 37° C.), the “MIC against P. vulgaris” value came out at 50 µg/mL. Moreover, the “MIC against S. marcescens” value against Serratia marcescens (Serratia marcescens, 10 h cultivation at 37° C.) came to 12.5 µg/mL.

In the test on E. coli DH5α, “PRT875 (GGSPCEAGEEGEGGVCLNGGVCSVVDDQAVCDCSRTGFRGKDCS; listed as Homo sapiens)” showed an MIC of 25 µg/mL. Moreover, the “MIC (μg/mL) E. coli BL21” value against E. coli BL21 (setting [1]) stood at 12.5 µg/mL. Moreover, the “MIC (μg/mL) P. aeruginosa” value in the test on Pseudomonas aeruginosa (setting [2]) is 25 µg/mL. In the test with Klebsiella pneumonia (setting [3]), the “MIC (μg/mL) K. pneumonia” value was 50 µg/mL. The “MIC (μg/mL) E. cloacae” value in the test on Enterobacter cloacae (setting [4]) came to 12.5 µg/mL. For the same substance, in the test on Aeromonas hydrophila (setting [5]), the “MIC (μg/mL) A. hydrophila” value was determined as 50 µg/mL. Also, in the test with Citrobacter diversus (setting [6]), the “MIC (μg/mL) C. diversus” value came to 12.5 µg/mL. In addition, the “MIC (μg/mL) M. catarrhalis” value with Moraxella catarrhalis (setting [7]) came out at 25 µg/mL. Moreover, the “MIC (μg/mL) P. mirabilis” value against Proteus mirabilis (setting [8]) is 50 µg/mL. Also, the “MIC (μg/mL) P. vulgaris” value with Proteus vulgaris (setting [9]) was 12.5 µg/mL. In addition, the “MIC (μg/mL) S. marcescens” value against Serratia marcescens (setting [10]) stood at 12.5 µg/mL.

The term MIC denotes the lowest concentration found to suppress growth. A lower MIC goes with inhibition by little substance.
